Laboratory results published in patent US6967196B1, “Sulfonamide compounds and uses thereof” (Bristol-Myers Squibb Company, priority 1999, dated 2005).
Structures can show the parent of a compound that is named as a salt. Where two headings read alike, the source gives them in different places. Each block holds one compound with its values, some of them ahead of it.

System: amyloid β production in transfected H4 (human neuroglioma) cells stably expressing APP constructs
Assay: In vitro cell-based assay of inhibitors of amyloid β production (ELISA)
Settings: amyloid β in medium by ELISA, read-out: ACTIVITY (IC50, inhibition of amyloid β production)
Method: In Vitro Cell-Based Assay of Inhibitors of Amyloid β Production
Transfected H4 (human neuroglioma) cells stably expressing APP constructs are used to identify and assess inhibitors of Aβ production. In brief, cells lines are exposed to compounds, and the effect of each compound on amyloid β production is determined by measuring the amount of amyloid β produced using an enzyme linked immunosorbent assay (ELISA) that detects amyloid β (see, for example, Seubert et al., (1992) Nature, 359:325-327).
Transfected cells that stably express wild-type and variant forms of APP are plated in 96-well format plates at a density sufficient for the rapid detection of the secreted amyloid β (experimentally predetermined for a particular stable cell population). Cells are plated at least six hours prior to the introduction of the test compound at which time the growth medium is replaced by fresh medium containing the compound to be tested. All synthetic agents are initially screened at doses ranging from 10-100 μM. Higher dilutions of agents can be used to minimize cytotoxicity. Incubation of cells with a test compound continues for approximately 16 hours at which time aliquots of medium from each well are removed and assayed for amyloid β.
ELISA is carried out by methods known in the art (see, e.g., Haass et al., Antibodies: A Laboratory Manual, Harlow and lane, Editors, Cold Spring Harbor Press, 1988) The capture antibody is typically a mouse monoclonal (IgG1/kβ-APPa) which recognizes the carboxyl terminal epitope of amyloid β. The specificity of the capture antibody insures measurement of amyloid β without interference from other secreted APP fragments that share amino acid sequence (amyloid β 1-16) homology with amyloid β but lack the carboxy-terminal region. The detecting antibody is typically an affinity-purified rabbit polyclonal antibody that is specific for the amino terminus of amyloid β.
Results from test compounds are compared to results obtained when cells are treated with control agents. Amyloid β levels are determined by comparison to a standard curve obtained by subjecting a range of known amounts of amyloid β to the ELISA.
A compound is identified as “active” when it inhibits cellular production of amyloid β relative to levels in control samples by at least 50% at the initial tested concentration without significant cytotoxicity. Active compounds are then assayed in dose-response experiments to determine the lowest dose of compound necessary for inhibition of amyloid β production.

[1] = Homo sapiens, 16 h, transfected H4 cells expressing APP, approximately 16 hours incubation
[2] = transfected H4 cells stably expressing APP constructs, approximately 16 hours incubation
[3] = Homo sapiens, 16 h, transfected H4 cells stably expressing APP, approximately 16 hours incubation, Table B
[4] = transfected H4 cells stably expressing APP, approximately 16 hours incubation, Table B
[5] = Homo sapiens, 16 h, transfected H4 cells stably expressing APP, approximately 16 hours incubation
[6] = transfected H4 cells stably expressing APP, approximately 16 hours incubation
[7] = transfected H4 cells stably expressing APP, approx. 16 h incubation

Compound: COC(=O)[C@H](CC(C)C)NC(=O)CCCC[C@@H](C)N(c1cc(Cl)ccc1F)S(=O)(=O)c1ccc(Cl)cc1 [Example 1258, (R)-4-Chloro-N-(5-chloro-2-fluorophenyl)-N-[6-[N-(S)-[1-(methoxycarbonyl)-3-methylbutyl]amino]-1-methyl-6-oxohexyl]benzenesulfonamide]
IC50 [2]: ≤ 25 nM

Compound: O=S(=O)(c1ccc(Cl)cc1)N(Cc1ccccc1OCCCN1CC=CCC1)c1ccccc1 [Example 289, 4-Chloro-N-{2-[3-(3,6-dihydro-1(2H)pyridinyl)propoxy]benzyl}-N-phenylbenzenesulfonamide Hydrochloride]
IC50 [4]: 25 to 50 nM

Compound: CNC(=O)CCCOc1ccccc1C(C)N(c1cc(F)ccc1F)S(=O)(=O)c1ccc(Cl)cc1 (stereo not shown) [Example 378, 4-[2-(1-{[(4-Chlorophenyl)sulfonyl]-2,5-difluoroanilino}ethyl)phenoxy]-N-methylbutanamide]
IC50 [4]: 50 to 100 nM

Compound: O=S(=O)(c1ccc(Cl)cc1)N(Cc1ccccc1OCCCN1CCCCC1)C1CCc2ccccc21 (stereo not shown) [Example 1012, 4-chloro-N-(2,3-dihydro-1H-inden-1-yl)-N-{2-[3-(1-piperidinyl)propoxy]benzyl}benzenesulfonamide hydrochloride]
IC50 [5]: > 500 nM

Compound: 3-(2-{[(phenylsulfonyl)anilino]methyl}phenyl)propanoic acid [Example 993]
IC50 [6]: > 500 nM

Compound: CC(C)Oc1c(NCCC[C@@H](C)N(c2cc(Cl)ccc2Cl)S(=O)(=O)c2ccc(Cl)cc2)c(=O)c1=O [Example 1128, 4-chloro-N-(2,5-dichlorophenyl)-N-[4-(2-isopropoxy-3,4-dioxo-1-cyclobutenyl)amine-1(R)-methylbutyl]benzenesulfonamide]
IC50 [2]: 50 to 100 nM

Compound: CCNC(=O)N(C)CCOc1ccccc1C(C)N(c1cc(F)ccc1F)S(=O)(=O)c1ccc(Cl)cc1 (stereo not shown) [Example 801, 4-chloro-N-(2,5-difluorophenyl)-N-[1-(2-{3-[[(ethylamino)carbonyl](methyl)amino]ethoxy}phenyl)ethyl]benzenesulfonamide]
IC50 [7]: 100 to 500 nM

Compound: C[C@H](CCCCN1CCCC(S(C)(=O)=O)C1)N(c1cc(Cl)ccc1Cl)S(=O)(=O)c1ccc(Cl)cc1 (stereo partly drawn) [Example 1115, 4-chloro-N-(2,5-dichlorophenyl)-N-[5-[(3-methylsulfonyl)-1-piperidinyl]-1(R)-methylpentyl]benzenesulfonamide]
IC50 [2]: 25 to 50 nM

Compound: 3,4-dichloro-N-{3-[2-(1-{[(4-chlorophenyl)sulfonyl]-2,5-difluoroanilino}ethyl)phenoxy]propyl}-N-methylbenzenesulfonamide [Example 822]
IC50 [6]: 100 to 500 nM

Compound: O=S(=O)(c1ccc(Cl)cc1)N(Cc1ccccc1OCCCN1CCCCC1)c1cc(Cl)ccc1O [Example 887, 4-chloro-N-(5-chloro-2-hydroxyphenyl)-N-{2-[3-(1-piperidinyl)propoxy]benzyl}benzenesulfonamide hydrochloride]
IC50 [5]: > 500 nM

Compound: O=S(=O)(c1ccc(Cl)cc1)N(Cc1ccccc1C#CCCO)c1ccccc1 [Example 1040, 4-chloro-N-[2-(4-hydroxy-1-butynyl)benzyl}-N-phenylbenzenesulfonamide]
IC50 [5]: > 500 nM

Compound: C[C@H](COC(=O)NCCCn1ccnc1)N(c1cc(Cl)ccc1CO)S(=O)(=O)c1ccc(Cl)cc1 [Example 1285]
IC50 [1]: ≤ 25 nM

Compound: CONC(=O)CCCOc1ccccc1C(C)N(c1cc(F)ccc1F)S(=O)(=O)c1ccc(Cl)cc1 (stereo not shown) [Example 379, 4-[2-(1-{[(4-Chlorophenyl)sulfonyl]-2,5-difluoroanilino}ethyl)phenoxy]-N-methoxybutanamide]
IC50 [4]: 50 to 100 nM

Compound: N-{3-[2-({[(4-chlorophenyl)sulfonyl]-2,5-difluoroanilino}methyl)phenoxy]propyl}-N-methyl-4-(trifluoromethyl)benzamide [Example 898]
IC50 [6]: > 500 nM

Compound: 3-[2-(2-{[(4-chlorophenyl)sulfonyl]-2,5-difluoroanilino}-1-methylethyl)-5-fluorophenyl]butanoic acid [Example 940]
IC50 [6]: > 500 nM

Compound: C[C@H](COC(=O)NCCCn1ccnc1)N(c1cc(Cl)ccc1F)S(=O)(=O)c1ccc(Cl)cc1 [Example 1244, 4-Chloro-N-(2-fluoro-5-chlorophenyl)-N-[2-[[N′-[3-(1H-imidazol-1-yl)propylamino]carbonyl]oxy]-(R)-1-methylethyl]benzenesulfonamide]
IC50 [2]: ≤ 25 nM

Compound: S-ethyl-3-[2-({[(4-chlorophenyl)sulfonyl]-2,5-difluoroanilino}methyl)phenoxy]propyl(methyl)thiocarbamate [Example 757]
IC50 [7]: 100 to 500 nM

More lines, now with the values ahead:

IC50 [1]: 100 to 500 nM
Compound: CCOCCCNC(=O)[C@@H](C)N(c1cc(Cl)ccc1F)S(=O)(=O)c1ccc(Cl)cc1 [Example 1320]

IC50 [3]: 50 to 100 nM
Compound: C[C@H](c1ccccc1CCC(=O)NC1CCCc2ccccc21)N(c1cc(F)ccc1F)S(=O)(=O)c1ccc(Cl)cc1 (stereo partly drawn) [Example 406, 3-[2-((1R)-1-{[(4-chlorophenyl)sulfonyl]-2,5-difluoroanilino}ethyl)phenyl]-N-(1,2,3,4-tetrahydro-1-naphthalenyl)propanamide]

IC50 [4]: 100 to 500 nM
Compound: O=S(=O)(c1ccc(Cl)cc1)N(Cc1ccccc1OCCC[N+]1([O-])CCCCC1)c1ccccc1 [Example 505, 4-Chloro-N-{2-[3-(1-hydroxy-1˜lambda˜5˜piperidin-1-yl)propoxy]benzyl}-N-phenylbenzenesulfonamide]

IC50 [5]: > 500 nM
Compound: CSCCCc1cc(F)ccc1[C@@H](C)N(c1cc(F)ccc1F)S(=O)(=O)c1ccc(SC)cc1 [Example 912, N-(2,5-difluorophenyl)-N-((1R)-1-{4-fluoro-2-[3-(methylsulfanyl)propyl]phenyl}ethyl)-4-(methylsulfanyl)benzenesulfonamide]

IC50 [6]: 100 to 500 nM
Compound: 2-((1R)-1-{[(4-chlorophenyl)sulfonyl]-2,5-difluoroanilino}ethyl)benzyl (1S)-1-phenylethylcarbamate [Example 823]

IC50 (Homo sapiens, 16 h, transfected H4 cells stably expressing APP constructs, approximately 16 hours incubation): 50 to 100 nM
Compound: CC(C)CNS(=O)(=O)CCC[C@@H](C)N(c1cc(Cl)ccc1Cl)S(=O)(=O)c1ccc(Cl)cc1 [Example 1216, 4-chloro-N-[2,5-dichlorophenyl]-N-[4-[(2-methylpropylamino)sulfonyl]-1(R)-methylbutyl]benzenesulfonamide]

IC50 [3]: 50 to 100 nM
Compound: CC(C)CNC(=O)OCc1cc(F)ccc1[C@@H](C)N(c1cc(F)ccc1F)S(=O)(=O)c1ccc(Cl)cc1 [Example 398, 2-((1R)-1-{[(4-chlorophenyl)sulfonyl]-2,5-difluoroanilino}ethyl)-5-fluorobenzyl isobutylcarbamate]

IC50 [6]: > 500 nM
Compound: 4-chloro-N-(2,5-difluorophenyl)-N-{2-[3-(1-piperidinyl)propyl]benzyl}-N-phenylbenzenesulfonamide [Example 1044]

IC50 (Homo sapiens, 16 h, transfected H4 cells stably expressing APP, approx. 16 h incubation): 100 to 500 nM
Compound: O=S(=O)(c1ccc(Cl)cc1)N(Cc1ccccc1OCCCn1ccnc1)c1cc(Cl)ccc1Cl [Example 740, 4-chloro-N-(2,5-dichlorophenyl)-N-{2-[3-(1H-imidazol-1-yl)propoxy]benzyl}benzenesulfonamide hydrochloride]

IC50 [1]: > 500 nM
Compound: C[C@H](C(=O)NC[C@@H]1CC[C@H]2C[C@@H]1C2(C)C)N(c1cc(Cl)ccc1F)S(=O)(=O)c1ccc(Cl)cc1 [Example 1323]

IC50 (transfected H4 cells stably expressing APP, approximately 16 hours incubation, hydrochloride): 100 to 500 nM
Compound: CCC[C@@H](C)N(Cc1ccccc1OCCCN1CCCCC1)S(=O)(=O)c1ccc(Cl)cc1 [Example 867, 4-chloro-N-[(1R)-1-methylbutyl]-N-{2-[3-(1-piperidinyl)propoxy]benzyl}benzenesulfonamide hydrochloride]
